# Test results from PMC8456950, “Structure‐Guided Design of G‐Protein‐Coupled Receptor Polypharmacology” (Angewandte Chemie (International Ed. in English), 2021).
# Legend:
# [1] = target: T1, Human D2R (Homo sapiens, UniProt P14416); assay: D2R competition binding ([3H]-spiperone displacement); conditions: radioligand displacement, mean±SEM of three experiments in duplicate; read-out: D2R binding affinity Ki
# T1 construct: expressed in transfected cells; host or cells: CHO-D2R #S20 cell line (membranes)
# T1 sequence (P14416 whole entry): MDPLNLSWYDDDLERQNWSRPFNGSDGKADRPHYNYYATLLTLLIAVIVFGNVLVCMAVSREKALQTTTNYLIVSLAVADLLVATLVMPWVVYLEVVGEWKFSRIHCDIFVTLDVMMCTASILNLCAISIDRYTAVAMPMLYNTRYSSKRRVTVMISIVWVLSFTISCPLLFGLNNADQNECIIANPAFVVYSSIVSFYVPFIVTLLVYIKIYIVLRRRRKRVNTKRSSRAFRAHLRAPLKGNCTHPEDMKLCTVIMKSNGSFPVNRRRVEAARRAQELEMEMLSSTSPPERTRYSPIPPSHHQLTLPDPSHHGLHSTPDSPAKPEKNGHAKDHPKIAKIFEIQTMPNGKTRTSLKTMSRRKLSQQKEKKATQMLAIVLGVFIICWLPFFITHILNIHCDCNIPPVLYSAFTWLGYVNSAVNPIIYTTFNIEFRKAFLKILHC
# Experimental: Human D2R competition binding experiments w ere carried out in polypropylene 96-well plates. Each well contained 10 µg of membranes from a CHO-D2R #S20 cell line (protein concentration of 3241 µg/ml), 0.4 nM [3H]-spiperone (80. 2 Ci/mmol, 1 mCi/ml, Perkin […]
# The reaction mixture (250 µl/well) was incubated at 25°C for 120 min , after which 200 µL was transferred to a GF/C 96 -well plate (Millipore, Madrid, Spain) pretreated with 0. 5% of PEI and treated with binding buffer (50 mM Tris-HCl, 1 mM EDTA, 5 mM MgCl2, 5 mM KCl, 120 mM NaCl, pH=7.4). The […]
# samples were filtered and washed four times with 250 µl wash buffer (50 mM Tris-HCl, 0.9% NaCl, pH=7.4) before measuring in a microplate beta scintillation counter (Microbeta Trilux, PerkinElmer, Madrid, Spain). Three independent exp eriments were carried out to calculate Ki values (n=3). […]
# [2] = target: T1, Human D2R; assay: D2R functional cAMP (HTRF) assay in CHO-D2 #S20 cells; assay type: cell-based; conditions: for EC50: cAMP HTRF, CHO-D2 cells, forskolin 10 µM, mean±SEM n=3; for Emax: relative to the maximal effect of dopamine
# Experimental: KB=I C50/(1+([NECA]/EC50 NECA)).
# Functional assays for the human D2R were carried out in a CHO-D2 #S20 cell line. 5,000 cells were seed ed in 30 µl of Opti-ME M (Invitrogen 11058) and 500µM IBMX (Sigma 17018) on a 96-well isoplate (PerkinElmer 6005030). The studied compounds wer e then added and incubated for 10 min at 37 °C with gentle stirring (150 rpm). Then, 10 µM […]
# forskolin (Sigma 17018) was added and incubated for 5 min at 37 °C with gentle stirring (150 rpm). Reagents (#CISBIO 62AM4PEC) were added and, after incubation for 60 min at rt with gentle stirring (90 rpm) and protected from light, homogeneous time resolved fluorescence (HTRF, λEx: 320 nm; λEm: 620-665 nm) from each well was measured using a Tecan Infinite M1000 Pro. Data were normalized to the maximum effect of dopamine. EC50 and Ema x values were obtained after fitting the d ata to a four -parameter logistic equatio n using Prism V2. 1 (Graph Pad Inc, Chicago, USA) . […]
# [3] = target: Human A2AAR (Homo sapiens, UniProt P29274); assay: A2AAR functional assay, inhibition of NECA-elicited cAMP production in CHO-A2A cells; assay type: cell-based; set-up: expressed in transfected cells; conditions: mean±SEM n=3
# Human A2AAR, sequence (P29274 whole entry): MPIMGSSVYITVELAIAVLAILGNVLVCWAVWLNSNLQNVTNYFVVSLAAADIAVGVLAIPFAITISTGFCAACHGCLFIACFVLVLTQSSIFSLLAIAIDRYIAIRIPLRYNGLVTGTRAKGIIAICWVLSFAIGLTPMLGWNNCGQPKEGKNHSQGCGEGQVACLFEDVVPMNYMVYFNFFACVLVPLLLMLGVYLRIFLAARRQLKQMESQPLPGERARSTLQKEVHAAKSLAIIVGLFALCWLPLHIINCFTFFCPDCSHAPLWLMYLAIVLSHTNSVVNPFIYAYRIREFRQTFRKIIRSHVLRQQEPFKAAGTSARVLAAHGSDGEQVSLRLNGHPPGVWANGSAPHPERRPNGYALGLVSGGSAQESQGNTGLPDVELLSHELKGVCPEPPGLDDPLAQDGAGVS
# Experimental: Functional assays. For the human A2AAR, functional experiments measuring cAMP production were carried out in CHO-A2A cell line. The day before the assay, the cells were seeded on a 96-well culture plate (Falcon 353072). The cells were washed with wash buffer (Dulbecco’s modified eagle’s medium nutrient mixture F-12 ham (Sigma D8062), 25 mM Hepes; pH=7.4). Wash buffer was then replaced by incubation buffer (Dulbecco’s modified eagle’s medium nutrient mixture F-12 ham (Sigma D8062), 25 mM Hepes, 20 µM Rolipram, pH=7.4). The studied compounds wer e added and incubated at 37 °C for 15 min. After incubation, NECA (Sigma E2387) was added in several concentrations and incubated at 37 °C for 15 min. After incubation, the amount of cAMP was determined using the cAMP Biotrak Enzymeimmunoassay (EIA) System Kit (GE Healthcare RPN225). Data were adjusted to non-linear fitting by using Prism V2.1 (GraphPad Inc, Chicago USA). K B values were calculated from the IC50 values obtained for each compound by using the formula:
# KB=I C50/(1+([NECA]/EC50 NECA)). […]
Ki [1],EC50 [2],Emax [2],Kb [3],Structure (SMILES)
0.34 ± 0.04 µM,2.5 ± 0.9 µM,119 ± 6%,–,CCN(CCCCC(=O)Nc1nc2c(Br)cccc2s1)C1Cc2ccccc2C1 [Compound 22]
0.37 ± 0.03 µM,0.18 ± 0.04 µM,77 ± 5%,0.72 ± 0.25 µM,CCCN(CCCCC(=O)Nc1nc2c(OC)ccc(OC)c2s1)C1Cc2ccccc2C1 [Compound 30]
0.53 ± 0.18 µM,0.18 ± 0.03 µM,89 ± 4%,0.51 ± 0.24 µM,CCCN(CCCCC(=O)Nc1nc2c(Br)cccc2s1)C1Cc2ccccc2C1 [Compound 27]
0.23 ± 0.02 µM,0.99 ± 0.38 µM,94 ± 3%,3.6 ± 2 µM,CCCN(CCCCC(=O)Nc1nc2c(OC)cccc2s1)C1Cc2ccccc2C1 [Compound 26]
